The values that follow come from US20090030033A1, “Novel Compounds 894” (AstraZeneca AB, priority 2007, published 2009).

Where a name gives a salt, the structure may show the parent alone.

The IC50 is the concentration that gives 50% inhibition. A higher IC50 goes with a need for much substance.

This assay deals with T1, human GlyT1b (Homo sapiens, UniProt P48067).
T1 construct: expressed in transfected cells
T1 sequence (P48067 1-652 isoform P48067-3): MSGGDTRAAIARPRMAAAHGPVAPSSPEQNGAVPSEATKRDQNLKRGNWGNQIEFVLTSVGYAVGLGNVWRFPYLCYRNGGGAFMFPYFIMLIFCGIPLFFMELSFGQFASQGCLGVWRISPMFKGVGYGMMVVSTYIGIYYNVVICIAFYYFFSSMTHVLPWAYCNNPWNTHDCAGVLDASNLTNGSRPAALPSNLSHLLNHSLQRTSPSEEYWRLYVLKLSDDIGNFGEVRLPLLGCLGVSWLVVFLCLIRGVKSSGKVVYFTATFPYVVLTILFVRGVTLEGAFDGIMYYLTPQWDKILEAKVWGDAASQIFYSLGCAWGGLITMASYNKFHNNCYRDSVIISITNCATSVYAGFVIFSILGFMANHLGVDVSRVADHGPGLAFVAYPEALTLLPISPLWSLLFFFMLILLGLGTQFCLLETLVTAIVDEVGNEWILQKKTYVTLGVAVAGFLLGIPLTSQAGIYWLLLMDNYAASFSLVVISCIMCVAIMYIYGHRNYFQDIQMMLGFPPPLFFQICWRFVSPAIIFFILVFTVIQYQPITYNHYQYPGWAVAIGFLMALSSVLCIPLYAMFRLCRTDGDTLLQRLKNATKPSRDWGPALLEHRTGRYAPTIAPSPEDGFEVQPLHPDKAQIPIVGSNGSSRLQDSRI
Kind of assay: [3H]Glycine Uptake Assay (SPA) in hGlyT1b/CHO cells. The settings on record: compounds of Formula Ib, read at 2 h. Type of assay: cell-based. How it is done: The activity and usefulness of the compounds can be assessed in assays known to those skilled in the art. […] The potency was measured in the [3H]Glycine Uptake Assay substantially as described below.
[^3H]Glycine Uptake Assay
[^3H]Glycine: PerkinElmer (NET-004, [2-^3H]Glycine, 53.3 Ci/mmol, 1 mCi/mL)
Preparation of recombinant human GlyT1-CHO cells (hGlyT1-CHO). […] CHO-K1 cells (ATCC) were transfected with the recombinant vector containing GlyT1b using Lipofectamine 2000 (Invitrogen) and cultured in Ham's/F12 media supplemented with 10% fetal bovine serum, 2 mM L-glutamine at 37° C., 5% CO2, 90% humidity. Twenty-four hours after transfection, cells were diluted and switched to media containing 500 μg/ml hygromycin B. Antibiotic resistant cells were obtained after 21 days of culture in the presence of hygromycin B. Clonal stable cell lines were isolated by FACS single cell deposition into 96-well plates.
Cell culture: Recombinant hGlyT1-CHO cells were cultured in cell culture medium (Ham's/F12, containing 10% FBS, 2 mM L-glutamine and 500 μg/ml hygromycin B in 175 cm^2 flasks until near confluence prior to use in assay.
Cell suspension: Cell medium in a cell culture flask containing near confluent cells was removed and 5 ml of cell stripper was added to submerge all cells on the surface of the culture flask. Cell stripper was removed immediately and the flask incubated in a 37° C. incubator for ˜5 min. Cells were shaken loose and suspended in 5 ml of PBS. After splitting cells to initiate a new flask(s), the cells remaining were collected by centrifugation, counted, and resuspended in assay buffer to a density of ˜2 million/mL. The cell suspension was kept at room temperature before use.
SPA and isotope mixture: WGA PTV beads were suspended in assay buffer (2 mg/ml) containing 60 nM [^3H]Glycine and 20 μM unlabeled glycine and the suspension was kept at room temperature before assay.
Assay of glycine uptake: To the wells of an OptiPlate, 2 μl DMSO containing a test compound was spotted. This was followed by addition of 98 μl of cell suspension (˜1 million/ml final). After incubating cells with compound for ˜15 min, 100 μl of the SPA (200 μg/well final) and isotope mixture (30 nM isotope with 10 μM cold glycine, final) was added to initiate the glycine uptake. At 2 h, the plate was read on a TopCount to quantify SPA counts.

In the case of `CN1CC2CCC1(C(NC(=O)c1ccc(F)cc1Cl)c1ccccc1)CC2` [drawing 58, (R)-2-chloro-4-fluoro-N-((2-methyl-2-azabicyclo[2.2.2]octan-1-yl)(phenyl)methyl)benzamide,citric acid salt], the 50% inhibitory concentration (IC50) came out at 7.71 nM.
